Assay results taken from US11702422B2, “Imidazopyridazines as modulators of IL-17” (Janssen Pharmaceutica NV, priority 2020, dated 2023).

These compounds were tested against IL-17A(FLAG-Tagged): IL-17RA(His-Tagged) (Homo sapiens, UniProt Q16552, K93Q) (assay: IL-17A(FLAG-Tagged): IL-17RA(His-Tagged) Binding Disruption Eu-HTRF Assay). Conditions: IL-17A/IL-17RA binding disruption, simple average if tested more than once.
Excerpt: IL-17A(FLAG-Tagged): IL-17RA(His-Tagged) Binding Disruption Eu-HTRF Assay
An antibody directed against the FLAG tag of IL-17A (SEQ ID NO:1) is labeled with the HTRF donor chromophore (Europium-cryptate). IL-17A is present as a dimer that is “locked into” this quaternary structure due to the formation of loop-spanning […] disulfide bridges. The construct of IL-17RA used in the assay excludes the […] portion of the receptor and is fused to a C-terminal 10×His tag (SEQ ID NO:2). An antibody directed against the His tag of the IL-17RA chimera is labeled with the HTRF acceptor chromophore (“D2”). The fluorescence-resonance energy transfer (FRET) depends on the vicinity of the donor chromophore to the acceptor, and interruption of the binding between the IL-17A and IL-17RA causes the reduction/loss of FRET. Therefore, this assay allows to evaluate the compound effect on the binding IL-17A and IL-17RA by monitoring the fluorescence intensity of donor vs acceptor. The assay is run as described below.
40 nl of 2-fold serial diluted compound solution for total 22 dilution points is added into each well of a 1536-well, white, low-volume, non-binding plate (Greiner #782904), then 2 μl of FLAG tagged IL-17A at 2× final concentration (2.5 nM) in solution of PBS+0.01% Triton-X100 is added to each well. The assay plate is briefly centrifuged then incubated for 1 h at rt. A mixed solution is prepared containing 2×5 nM 10HIS×IL-17RA, 2×2.5 nM Eu-anti-FLAG (CISBIO), 2×5 nM D2-anti-HIS (CISBIO) in PBS+0.01% Triton-X100+200 mM Potassium Fluoride (Sigma 60238) and 2 μl of mix is added to each well of the assay plate. The plate is briefly centrifuged then incubated for 2 h at rt. The HTRF intensities at the wavelength of donor (620 nm) and acceptor (665 nm) are measured using BMG Pherastar. The ratio between intensities at two wavelengths is calculated and plotted against the compound concentration and the data is fitted to a one-site competition model to yield IC50 of the compound.

UniProt Q16552, sequence (Q16552 with tags, fused parts or gaps K93Q): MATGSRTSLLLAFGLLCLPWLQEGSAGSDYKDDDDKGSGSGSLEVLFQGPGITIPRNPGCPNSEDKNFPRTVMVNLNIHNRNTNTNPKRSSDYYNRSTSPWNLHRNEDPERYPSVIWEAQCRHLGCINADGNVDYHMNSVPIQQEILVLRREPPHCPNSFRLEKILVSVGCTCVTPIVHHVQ

| IC50 | SMILES |
| --- | --- |
| 0.18 µM | Cc1nocc1C(=O)N[C@H](c1cn2ncc(C(NC(=O)CCC(F)(F)F)C(C)C)cc2n1)C1CCC(F)(F)CC1 (mixture of isomers) [Example 134, N—((S)-(4,4-Difluorocyclohexyl)(7-(2-methyl-1-(4,4,4-trifluorobutanamido)propyl)imidazo[1,2-b]pyridazin-2-yl)methyl)-3-methylisoxazole-4-carboxamide] |
| 0.24 µM | O=C(CCC(F)(F)F)N[C@@H](c1cnn2cc([C@@H](NC(=O)C3CC3C(F)(F)F)C3CCC(F)(F)CC3)nc2c1)C1CC1 (mixture of isomers) [Example 43, (Trans-1,2)-N—((S)-(7-((R)-cyclopropyl(4,4,4-trifluorobutanamido)methyl)imidazo[1,2-b]pyridazin-2-yl)(4,4-difluorocyclohexyl)methyl)-2-(trifluoromethyl)cyclopropane-1-carboxamide] |
| 19 µM | Cc1nonc1C(=O)N[C@H](c1cn2ncc([C@H](NC(=O)[C@H]3CNC[C@@H]3C(F)(F)F)C3CC3)cc2n1)C1CCC(F)(F)CC1 (relative stereo) [Example 355, N—((S)-(7-((R)-Cyclopropyl((trans-3R*,4R*)-4-(trifluoromethyl)pyrrolidine-3-carboxamido)methyl)imidazo[1,2-b]pyridazin-2-yl)(4,4-difluorocyclohexyl)methyl)-4-methyl-1,2,5-oxadiazole-3-carboxamide] |
| 7.6 µM | O=C(CCC(F)(F)F)NC(c1cnn2cc([C@@H](NC(=O)c3ccccc3)C3CCC(F)(F)CC3)nc2c1)C1CC1 (single isomer, unassigned) [Example 13, N—((S)-(7-((S*)-Cyclopropyl(4,4,4-trifluorobutanamido)methyl)imidazo[1,2-b]pyridazin-2-yl)(4,4-difluorocyclohexyl)methyl)benzamide] |
| 2.6 µM | Cc1nonc1C(=O)N[C@H](c1cn2ncc([C@H](NC(=O)CCCC#N)C3CC3)cc2n1)C1CCC(F)(F)CC1 [Example 351, N—((S)-(7-((R)-(4-Cyanobutanamido)(cyclopropyl)methyl)imidazo[1,2-b]pyridazin-2-yl)(4,4-difluorocyclohexyl)methyl)-4-methyl-1,2,5-oxadiazole-3-carboxamide] |

What follows are compounds tested on IL-17A-induced G-CSF production in human normal keratinocyte (NHK) (assay: NHK Assay: IL-17A-induced G-CSF production in human normal keratinocytes). Conditions: Homo sapiens, Keratinocyte, 24 h, adult normal human keratinocytes, IL-17A 5 ng/mL, simple average if tested more than once.
Format: cell-based
Method: IL-17A acts directly on keratinocytes through binding to dimeric receptor IL-17RA/RC and drives the production of a number of inflammatory mediators known to be elevated in psoriasis lesional tissue. IL-17A small molecule inhibitors that block the IL-17A to interact with IL-17R would inhibit the IL-17A signaling in its targeted cells such as keratinocytes. The compound functional activity is evaluated for its impact on IL-17A-induced G-CSF production in human normal keratinocyte (NHK).
Adult normal human keratinocytes are cultured in keratinocyte growth medium (Lonza) in a flask till reaching ˜ 90% confluence, then cells are transferred to a 384-well plate at density of 3000-4000 cell/well. Recombinant human IL-17A (Gibco PHC9174) is pre-incubated with titrated compound or DMSO for 1 h at rt then added to the cell culture plate. The final concentration of IL-17A is 5 ng/mL and DMSO is 0.2%, in the culture containing 5% FBS. Cells are cultured/treated for 24 h at 37° C. Supernatants are collected and G-CSF production is measured through HTRF technology using Human G-CSF Kit (CisBio). G-CSF concentration was extrapolated from the standard curve and IC50 is determined using GraphPad Prism. Cell viability is also evaluated using CellTiter-Glo kit (Promega) and effect of compound on cell viability is compared to DMSO control.

| SMILES | IC50 |
| --- | --- |
| Cc1nocc1C(=O)N[C@H](c1cn2ncc(C(NC(=O)CCC(F)(F)F)C(C)C)cc2n1)C1CCC(F)(F)CC1 (mixture of isomers) [Example 134, N—((S)-(4,4-Difluorocyclohexyl)(7-(2-methyl-1-(4,4,4-trifluorobutanamido)propyl)imidazo[1,2-b]pyridazin-2-yl)methyl)-3-methylisoxazole-4-carboxamide] | 0.11 µM |
| O=C(CCC(F)(F)F)N[C@@H](c1cnn2cc([C@@H](NC(=O)C3CC3C(F)(F)F)C3CCC(F)(F)CC3)nc2c1)C1CC1 (mixture of isomers) [Example 43, (Trans-1,2)-N—((S)-(7-((R)-cyclopropyl(4,4,4-trifluorobutanamido)methyl)imidazo[1,2-b]pyridazin-2-yl)(4,4-difluorocyclohexyl)methyl)-2-(trifluoromethyl)cyclopropane-1-carboxamide] | 0.72 µM |
| O=C(CCC(F)(F)F)N[C@@H](c1cnn2cc([C@@H](NC(=O)c3nonc3CN3CC(F)(F)C3)C3CCC(F)(F)CC3)nc2c1)C1CC1 [Example 387, N—((S)-(7-((R)-Cyclopropyl(4,4,4-trifluorobutanamido)methyl)imidazo[1,2-b]pyridazin-2-yl)(4,4-difluorocyclohexyl)methyl)-4-((3,3-difluoroazetidin-1-yl)methyl)-1,2,5-oxadiazole-3-carboxamide] | 0.072 µM |
| CC(C)(C)Oc1nonc1C(=O)N[C@H](c1cn2ncc([C@H](NC(=O)CC3CC(F)(F)C3)C3CC3)cc2n1)C1CCC(F)(F)CC1 [Example 392, 4-(tert-Butoxy)-N—((S)-(7-((R)-cyclopropyl(2-(3,3-difluorocyclobutyl)acetamido)methyl)imidazo[1,2-b]pyridazin-2-yl)(4,4-difluorocyclohexyl)methyl)-1,2,5-oxadiazole-3-carboxamide] | 0.037 µM |
| CC(C)c1ncsc1C(=O)N[C@H](c1cn2ncc([C@H](NC(=O)CCC(F)(F)F)C3CC3)cc2n1)C1CCC(F)(F)CC1 [Example 464, N—((S)-(7-((R)-Cyclopropyl(4,4,4-trifluorobutanamido)methyl)imidazo[1,2-b]pyridazin-2-yl)(4,4-difluorocyclohexyl)methyl)-4-isopropylthiazole-5-carboxamide] | 0.63 µM |
| CC(C)c1nnsc1C(=O)N[C@H](c1cn2ncc([C@H](NC(=O)CCC(F)(F)F)C3CC3)cc2n1)C1CCC(F)(F)CC1 [Example 481, N—[(S)-[7-[(R)-Cyclopropyl-(4,4,4-trifluorobutanamido)methyl]imidazo[1,2-b]pyridazin-2-yl]-(4,4-difluorocyclohexyl)methyl]-4-isopropyl-thiadiazole-5-carboxamide] | 0.47 µM |

Same assay, conditions: adult normal human keratinocytes, IL-17A 5 ng/mL, 24 h, simple average if tested more than once

| SMILES | IC50 |
| --- | --- |
| CC(C)n1nccc1C(=O)N[C@H](c1cn2ncc(C(NC(=O)CC3CC(F)(F)C3)C(F)F)cc2n1)C1CCC(F)(F)CC1 (single isomer, unassigned) [Example 420, N—((S)-(7-((R*)-1-(2-(3,3-Difluorocyclobutyl)acetamido)-2,2-difluoroethyl)imidazo[1,2-b]pyridazin-2-yl)(4,4-difluorocyclohexyl)methyl)-1-isopropyl-1H-pyrazole-5-carboxamide] | 4.1 µM |
| CC(C)n1nccc1C(=O)N[C@H](c1cn2ncc(C(CC3CCC3)NC(=O)CC3CC(F)(F)C3)cc2n1)C1CCC(F)(F)CC1 (single isomer, unassigned) [Example 441, N—((S)-(7-((S*)-2-Cyclobutyl-1-(2-(3,3-difluorocyclobutyl)acetamido)ethyl)imidazo[1,2-b]pyridazin-2-yl)(4,4-difluorocyclohexyl)methyl)-1-isopropyl-1H-pyrazole-5-carboxamide] | 1.1 µM |
| CC(C)n1nccc1C(=O)N[C@H](c1cn2ncc(C(NC(=O)CC3CC(F)(F)C3)C(C)(C)O)cc2n1)C1CCC(F)(F)CC1 (single isomer, unassigned) [Example 442, N—((S)-(7-((S*)-1-(2-(3,3-Difluorocyclobutyl)acetamido)-2-hydroxy-2-methylpropyl)imidazo[1,2-b]pyridazin-2-yl)(4,4-difluorocyclohexyl)methyl)-1-isopropyl-1H-pyrazole-5-carboxamide] | 0.6 µM |
| Cc1nonc1C(=O)N[C@H](c1cn2ncc(C(NC(=O)CC3CC(F)(F)C3)C(C)(C)O)cc2n1)C1CCC(F)(F)CC1 (single isomer, unassigned) [Example 443, N—((S)-(7-((S*)-1-(2-(3,3-Difluorocyclobutyl)acetamido)-2-hydroxy-2-methylpropyl)imidazo[1,2-b]pyridazin-2-yl)(4,4-difluorocyclohexyl)methyl)-4-methyl-1,2,5-oxadiazole-3-carboxamide] | 0.52 µM |
| Cc1nonc1C(=O)N[C@H](c1cn2ncc(C(NC(=O)CCC(F)(F)F)C(F)F)cc2n1)C1CCC(F)(F)CC1 (single isomer, unassigned) [Example 515, N—((S)-(7-((S*)-2,2-Difluoro-1-(4,4,4-trifluorobutanamido)ethyl)imidazo[1,2-b]pyridazin-2-yl)(4,4-difluorocyclohexyl)methyl)-4-methyl-1,2,5-oxadiazole-3-carboxamide] | 0.14 µM |
| O=C(CC1CC(F)(F)C1)NC(c1cnn2cc([C@@H](NC(=O)c3nonc3C3CC3)C3CCC(F)(F)CC3)nc2c1)C(F)F (single isomer, unassigned) [Example 518, 4-Cyclopropyl-N—((S)-(7-((R*)-1-(2-(3,3-difluorocyclobutyl)acetamido)-2,2-difluoroethyl)imidazo[1,2-b]pyridazin-2-yl)(4,4-difluorocyclohexyl)methyl)-1,2,5-oxadiazole-3-carboxamide] | 2.9 µM |
| CC(C)c1oncc1C(=O)N[C@H](c1cn2ncc([C@H](NC(=O)CCC(F)(F)F)C3CC3)cc2n1)C1CCC(F)(F)CC1 [Example 482, N—[(S)-[7-[(R)-Cyclopropyl-(4,4,4-trifluorobutanamido)methyl]imidazo[1,2-b]pyridazin-2-yl]-(4,4-difluorocyclohexyl)methyl]-5-isopropyl-isoxazole-4-carboxamide] | 0.076 µM |
